The experiment deals with P388. The experiment can be described thus: Cytotoxicity against mouse P388 cells. The class given is functional. To be noted: read-out: ED50 (the source's name).

Values after ≈ are worked out from the molar mass of the structure shown.

On to `C=C(C)C(=O)O[C@H]1C[C@@](C)(OC(C)=O)C(=O)CC[C@H](C)C[C@H]2OC(=O)C(=C)[C@H]12` [LYCHNOSTATIN 2], for which the EC50 amounted to 0.19 µg/mL (≈ 0.484 µM). The value for `C=C(C)C(=O)O[C@H]1C[C@@](C)(OC(C)=O)C(=O)CC[C@H](C)[C@H](O)[C@H]2OC(=O)C(=C)[C@@H]21` [LYCHNOSTATIN 1] was 2 µg/mL (≈ 4.9 µM).

Values taken from ChEMBL document CHEMBL1150177, “Antineoplastic agents, 178. Isolation and structure of lychnostatins 1 and 2 from the South American Lychnophora antillana” (1990).
